# Test results from patent US8895585B2, “Nicotinamide derivative or salt thereof” (FUJIFILM Corporation, priority 2010, dated 2014).
# Where two headings read alike, the source gives them in different places.
# Columns and labels:
# [1] = target: T1, glutathione S-transferase (GST)-fused full-length human Syk protein (Homo sapiens, UniProt P43405); experiment: Syk enzyme assay; type: biochemical
# T1 construct: (GST)-fused full-length human Syk protein; GST (glutathione S-transferase); purchased Carna Biosciences
# Method in brief: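 IC50 values come from a time-resolved FRET readout (615 and 665 nm) of substrate phosphorylation, measured after an EDTA stop and 1 h antibody binding. The kinase reaction ran 40 min at room temperature with 27 μM ATP and 0.4 μM biotin-peptide, following a 15 min compound preincubation with baculovirus-made GST-full-length human Syk.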
# THP-1 cells = experiment: TNFα generation assay; type: cell-based, human
# Method in brief: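 THP-1 cells differentiated to macrophage-like cells with 10 ng/ml IFN-γ for 2 days, preincubated with compound 30 min at room temperature, then cultured 7 h on plates coated with human IgG (10 μg/ml). Secreted TNFα measured by ELISA or AlphaLISA.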
# [2] = Syk enzyme assay, Test Example 1, read-out: IC50 of Syk-inhibitory activity
# [3] = Homo sapiens, THP-1, THP-1 cells, Table 22, read-out: IC50 in TNFα generation assay
# [4] = THP-1 cells, Table 22, read-out: IC50 in TNFα generation assay
"IC50 [1, 2] [nM]",IC50 (THP-1 cells; [3]) [nM],IC50 (THP-1 cells; [4]) [nM],IC50 ([1]; read-out: Syk-inhibitory activity (IC50)) [nM],"IC50 (THP-1 cells; Homo sapiens, THP-1, 7 h, IFN-γ-differentiated THP-1 cells on human IgG-coated plate, cultured 7 hours, read-out: TNFα generation inhibitory activity (IC50)) [nM]",SMILES
50 to 100,130 to 200,–,–,–,NC(=O)c1cc(F)c(N[C@@H]2CCCC[C@@H]2N)nc1Nc1cnc2c(ccn2CCN2CCOCC2)c1 [Example 004-024]
< 10,< 65,–,–,–,NC(=O)c1cc(F)c(N[C@@H]2CCCC[C@@H]2N)nc1Nc1ccnc2c1ccn2CCN1CCOCC1 [Example 004-025]
< 10,< 65,–,–,–,NC(=O)c1cc(F)c(N[C@@H]2CCCC[C@@H]2N)nc1Nc1cnc2ncsc2c1 [Example 004-026]
10 to 50,130 to 200,–,–,–,Cn1cnc2cc(Nc3nc(N[C@@H]4CCCC[C@@H]4N)c(F)cc3C(N)=O)cnc21 [Example 004-027]
< 10,65 to 130,–,–,–,CCN(CC)CCn1ccc2c(Nc3nc(N[C@@H]4CCCC[C@@H]4N)c(F)cc3C(N)=O)ccnc21 [Example 004-028]
< 10,130 to 200,–,–,–,NC(=O)c1cc(F)c(N[C@@H]2CCCC[C@@H]2N)nc1Nc1ccnc2c1ccn2CCN1CCCCC1 [Example 004-029]
< 10,130 to 200,–,–,–,CN(C)CCCn1ccc2c(Nc3nc(N[C@@H]4CCCC[C@@H]4N)c(F)cc3C(N)=O)ccnc21 [Example 004-030]
< 10,130 to 200,–,–,–,CN(C)c1cccc2cc(Nc3nc(N[C@@H]4CCCC[C@@H]4N)c(F)cc3C(N)=O)cnc12 [Example 004-032]
< 10,130 to 200,–,–,–,NC(=O)c1cc(F)c(N[C@@H]2CCCC[C@@H]2N)nc1Nc1cnc2c(N3CCOCC3)cccc2c1 [Example 004-033]
< 10,130 to 200,–,–,–,COCCn1ccc2c(Nc3nc(N[C@@H]4CCCC[C@@H]4N)c(F)cc3C(N)=O)ccnc21 [Example 004-035]
< 10,65 to 130,–,–,–,CC(C)Cn1ccc2c(Nc3nc(N[C@@H]4CCCC[C@@H]4N)c(F)cc3C(N)=O)ccnc21 [Example 004-036]
< 10,65 to 130,–,–,–,NC(=O)c1cc(F)c(N[C@@H]2CCCC[C@@H]2N)nc1Nc1ccnc2c1ccn2C1CC1 [Example 004-037]
< 10,130 to 200,–,–,–,NC(=O)c1cc(F)c(N[C@@H]2CCCC[C@@H]2N)nc1Nc1ccnc2c1ccn2CC(F)(F)F [Example 004-039]
< 10,130 to 200,–,–,–,NC(=O)c1cc(F)c(N[C@@H]2CCCC[C@@H]2N)nc1Nc1ccnc2c1ccn2CC1CC1 [Example 004-040]
100 to 1000,65 to 130,–,–,–,NC(=O)c1cc(F)c(N[C@@H]2CCCC[C@@H]2N)nc1Nc1cncc(-n2ccnn2)c1 [Example 004-043]
< 10,130 to 200,–,–,–,Cn1ccc2c(Nc3nc(N[C@H](Cc4ccccc4)C(N)=O)c(F)cc3C(N)=O)ccnc21 [Example 004-044]
< 10,130 to 200,–,–,–,NC(=O)c1cc(F)c(N[C@H](Cc2ccccc2)C(N)=O)nc1Nc1ccnc2c1ccn2CC1CC1 [Example 004-046]
10 to 50,65 to 130,–,–,–,NC(=O)c1cc(F)c(N[C@@H]2CCCC[C@@H]2N)nc1Nc1cncc(-c2cccnc2)c1 [Example 004-103]
10 to 50,130 to 200,–,–,–,NC(=O)c1cc(F)c(N[C@@H]2CCCC[C@@H]2N)nc1Nc1cncc(-c2ccncc2)c1 [Example 004-104]
< 10,130 to 200,–,–,–,NC(=O)c1cc(F)c(N[C@@H]2CCCC[C@@H]2N)nc1Nc1cncc(-c2ccccn2)c1 [Example 004-106]
10 to 50,130 to 200,–,–,–,NC(=O)c1cc(F)c(N[C@@H]2CCCC[C@@H]2N)nc1Nc1cnc2c(NCC3CC3)cccc2c1 [Example 004-134]
10 to 50,130 to 200,–,–,–,NC(=O)c1cc(F)c(N[C@@H]2CCCC[C@@H]2N)nc1Nc1cnc2c(c1)OCO2 [Example 004-160]

"IC50 [1, 2] [nM]",IC50 (THP-1 cells; [3]) [nM],IC50 (THP-1 cells; [4]) [nM],IC50 ([1]; read-out: Syk-inhibitory activity (IC50)) [nM],"IC50 (THP-1 cells; Homo sapiens, THP-1, 7 h, IFN-γ-differentiated THP-1 cells on human IgG-coated plate, cultured 7 hours, read-out: TNFα generation inhibitory activity (IC50)) [nM]",SMILES
< 10,–,65 to 130,–,–,"COCCn1ncc2cc(Nc3nc(N[C@@H]4CCCC[C@@H]4N)c(F)cc3C(N)=O)ccc21 [Example 004-172, 6-((1R,2S)-2-aminocyclohexylamino)-5-fluoro-2-((1-(2-methoxyethyl)-1H-indazol-5-yl)-amino)nicotinamide]"
< 10,65 to 130,–,–,–,"CC(C)C[C@H](CN)Nc1nc(Nc2cncc(-n3nccn3)c2)c(C(N)=O)cc1F [Example 004-195, (R)-2-((5-(2H-1,2,3-triazol-2-yl)pyridin-3-yl)amino)-6-((1-amino-4-methylpentan-2-yl)amino)-5-fluoronicotinamide]"
< 10,130 to 200,–,–,–,"CC(C)C[C@H](CN)Nc1nc(Nc2cnc3c(N)cccc3c2)c(C(N)=O)cc1F [Example 004-196, (R)-6-((1-amino-4-methylpentan-2-yl)amino)-2-((8-aminoquinolin-3-yl)amino)-5-fluoronicotinamide]"
10 to 50,65 to 130,–,–,–,Cn1ncc2cc(Nc3nc(N[C@@H]4CCCC[C@@H]4N)c(F)cc3C(N)=O)cnc21 [Example 004-213]
< 10,65 to 130,–,–,–,COc1ncc(Nc2nc(N[C@@H]3CCCC[C@@H]3N)c(F)cc2C(N)=O)c2cc[nH]c12 [Example 004-235]
–,–,–,≤ 1000,≤ 200,"NCCNc1nc(Nc2ccc3ncccc3c2)c(C(N)=O)cc1F [Example 6-26, 6-((2-aminoethyl)amino)-5-fluoro-2-(quinolin-6-ylamino)nicotinamide]"
< 10,< 65,–,–,–,"C[C@H](N)CNc1nc(Nc2cnc3ccccc3c2)c(C(N)=O)cc1F [Example 006-092, (S)-6-((2-aminopropyl)amino)-5-fluoro-2-((quinolin-3-yl)amino)nicotinamide]"
< 10,< 65,–,–,–,"COc1cc(Nc2nc(NC[C@H](C)N)c(F)cc2C(N)=O)cc(OC)c1 [Example 006-093, (S)-6-((2-aminopropyl)amino)-2-(3,5-dimethoxyphenylamino)-5-fluoronicotinamide]"
10 to 50,65 to 130,–,–,–,"Cc1cncc(Nc2nc(NC[C@H](C)N)c(F)cc2C(N)=O)c1 [Example 006-094, (S)-6-((2-aminopropyl)amino)-5-fluoro-2-((5-methylpyridin-3-yl)amino)nicotinamide]"
10 to 50,< 65,–,–,–,"COc1cc(Nc2nc(NC[C@H](C)N)c(F)cc2C(N)=O)ccn1 [Example 006-096, (S)-6-((2-aminopropyl)amino)-5-fluoro-2-((2-methoxypyridin-4-yl)amino)nicotinamide]"
< 10,< 65,–,–,–,"C[C@H](N)CNc1nc(Nc2cccc(-n3nccn3)c2)c(C(N)=O)cc1F [Example 006-097, (S)-2-((3-(2H-1,2,3-triazol-2-yl)phenyl)amino)-6-((2-aminopropyl)amino)-5-fluoronicotinamide]"
10 to 50,< 65,–,–,–,Cc1cccc(Nc2nc(NC[C@H](C)N)c(F)cc2C(N)=O)c1 [Example 006-099]
< 10,65 to 130,–,–,–,"COc1cc(Nc2nc(N[C@H](C)CN)c(F)cc2C(N)=O)cc(OC)c1 [Example 006-100, (R)-6-((1-aminopopan-2-yl)amino)-2-((3,5-dimethoxyphenyl)amino)-5-fluoronicotinamide]"
10 to 50,65 to 130,–,–,–,"Cc1cncc(Nc2nc(N[C@H](C)CN)c(F)cc2C(N)=O)c1 [Example 006-101, (R)-6-((1-aminopropan-2-yl)amino)-5-fluoro-2-((5-methylpyridin-3-yl)amino)nicotinamide]"
10 to 50,65 to 130,–,–,–,"C[C@H](CN)Nc1nc(Nc2ccc3c(cnn3C)c2)c(C(N)=O)cc1F [Example 006-102, (R)-6-((1-aminopropan-2-yl)amino)-5-fluoro-2-((1-methyl-1H-indazol-5-yl)amino)nicotinamide]"
< 10,< 65,–,–,–,"Cc1cncc(Nc2nc(N[C@@H]3CCCC[C@@H]3N)c(F)cc2C(N)=O)c1 [Example 006-103, 6-(((1R,2S)-2-aminocyclohexyl)amino)-5-fluoro-2-((5-methylpyridin-3-yl)amino)nicotinamide]"
< 10,65 to 130,–,–,–,"Cc1ccc(Nc2nc(N[C@@H]3CCCC[C@@H]3N)c(F)cc2C(N)=O)cn1 [Example 006-104, 6-(((1R,2S)-2-aminocyclohexyl)amino)-5-fluoro-2-((6-methylpyridin-3-yl)amino)nicotinamide]"
10 to 50,–,65 to 130,–,–,Cc1cncc(Nc2nc(N[C@H](C)[C@H](C)N)c(F)cc2C(N)=O)c1 [Example 006-108]
< 10,–,65 to 130,–,–,C[C@H](N)[C@@H](C)Nc1nc(Nc2cccc3ncccc23)c(C(N)=O)cc1F [Example 006-110]
< 10,< 65,–,–,–,"NC(=O)c1cc(F)c(N[C@@H]2CCCC[C@@H]2N)nc1Nc1cncc(-c2ccccc2)c1 [Example 006-113, 6-(((1R,2S)-2-aminocyclohexyl)amino)-5-fluoro-2-((5-phenylpyridin-3-yl)amino)nicotinamide]"
< 10,65 to 130,–,–,–,"COc1cc(Nc2nc(N[C@@H]3CCCC[C@@H]3N)c(F)cc2C(N)=O)cc(OC)n1 [Example 006-114, 6-(((1R,2S)-2-aminocyclohexyl)amino)-2-((2,6-dimethoxypyridin-4-yl)amino)-5-fluoronicotinamide]"
10 to 50,130 to 200,–,–,–,"Cn1ncc2cc(Nc3nc(NC[C@@H](N)c4ccccc4)c(F)cc3C(N)=O)ccc21 [Example 006-119, (S)-6-((2-amino-2-phenylethyl)amino)-5-fluoro-2-((1-methyl-1H-indazol-5-yl)amino)nicotinamide]"
